Key:
Experiment in all cases: Test B pre-/postemergence plant response
Type in all cases: in vivo
corn (Zea mays) = test system: corn (Zea mays)
Summary of the method: (§1)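 Seeds were sown and sprayed preemergence, while plants at 2 to 18 cm (1- to 4-leaf stage) got postemergence sprays. Compounds were formulated in a non-phytotoxic solvent mixture with surfactant. After 13 to 15 days in a greenhouse, injury was rated visually against untreated controls, 0 (no effect) to 100 (complete control).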

[1] = test system: woolly cupgrass (Eriochloa villosa)
Summary of the method: as §1

[2] = test system: blackgrass (Alopecurus myosuroides); details: for Blackgrass plant response rating: 0-100 scale
Summary of the method: as §1

[3] = test system: johnsongrass (Sorghum halepense); details: for Johnsongrass plant response rating: postemergence, 0-100 scale
Summary of the method: as §1

[4] = test system: goosegrass (Eleusine indica); details: for Goosegrass plant response rating: postemergence, 0-100 scale
Summary of the method: as §1

[5] = test system: yellow nutsedge (Cyperus esculentus); details: for Nutsedge, Yellow plant response rating: postemergence, 0-100 scale
Summary of the method: as §1

[6] = test system: catchweed bedstraw (Galium aparine); details: Preemergence, scale 0 to 100
Summary of the method: as §1

[7] = test system: large crabgrass (Digitaria sanguinalis)
Summary of the method: as §1

[8] = test system: common ragweed (Ambrosia elation); details: for Ragweed plant response rating: postemergence, 0-100 scale
Summary of the method: as §1

kochia (Kochia scoparia) = details: for Kochia plant response rating: postemergence, 0-100 scale
Summary of the method: as §1

[9] = test system: velvetleaf (Abutilon theophrasti); details: for Velvetleaf plant response rating: postemergence, 0-100 scale
Summary of the method: as §1

wild oat (Avena fatua) = details: for Oat, Wild plant response rating: postemergence, 0-100 scale
Summary of the method: as §1

[10] = test system: cocklebur (Xanthium strumarium)
Summary of the method: as §1

[11] = Postemergence, 31 g ai/ha, scale 0 to 100, 0 no effect, 100 complete control
[12] = Postemergence, 62 g ai/ha, scale 0 to 100
[13] = Postemergence, 125 g ai/ha, scale 0 to 100
[14] = Postemergence, 250 g ai/ha, scale 0 to 100
[15] = Preemergence, 31 g ai/ha, 0 to 100 scale, 0 no effect, 100 complete control
[16] = Preemergence, 62 g ai/ha, scale 0 to 100
[17] = Preemergence, 125 g ai/ha, scale 0 to 100
[18] = Preemergence, 250 g ai/ha, scale 0 to 100
[19] = 8 g ai/ha, postemergence, 0-100 scale
[20] = Postemergence, 16 g ai/ha, scale 0 to 100
[21] = Postemergence, 31 g ai/ha, scale 0 to 100
[22] = Postemergence, 62 g ai/ha, scale 0 to 100, 0 no effect, 100 complete control

4-[3-(4-chlorophenyl)-5-methyl-1H-pyrazol-3-yl]-5-hydroxy-2-methyl-3(2H)-pyridazinone [Compound 3]
90: Plant response rating, Cupgrass, Woolly [1, 17] | Plant response rating, Crabgrass, Large [7, 15] | Plant response rating, Crabgrass, Large [7, 16] | Plant response rating, Oat, Wild (wild oat (Avena fatua); [11])
70: Plant response rating, Kochia (kochia (Kochia scoparia); [14]) | Plant response rating, Oat, Wild (wild oat (Avena fatua); [16])
20: Plant response rating, Velvetleaf [9, 18]
80: Plant response rating, Blackgrass [2, 15] | Plant response rating, Johnsongrass [3, 12] | Plant response rating, Johnsongrass [3, 15] | Plant response rating, Goosegrass [4, 15] | Plant response rating, Oat, Wild (wild oat (Avena fatua); [17])
30: Plant response rating, Kochia (kochia (Kochia scoparia); [17]) | Plant response rating, Kochia (kochia (Kochia scoparia); [18])
100: Plant response rating, Corn (corn (Zea mays); [11]) | Plant response rating, Corn (corn (Zea mays); [12]) | Plant response rating, Corn (corn (Zea mays); [13]) | Plant response rating, Corn (corn (Zea mays); [14]) | Plant response rating, Cupgrass, Woolly [1, 11] | Plant response rating, Cupgrass, Woolly [1, 12] | Plant response rating, Cupgrass, Woolly [1, 13] | Plant response rating, Cupgrass, Woolly [1, 14] | Plant response rating, Cupgrass, Woolly [1, 18] | Blackgrass plant response rating ([2]; 250 g ai/ha, preemergence) | Plant response rating, Blackgrass [2, 11] | Plant response rating, Blackgrass [2, 12] | Plant response rating, Blackgrass [2, 13] | Plant response rating, Blackgrass [2, 14] | Plant response rating, Blackgrass [2, 16] | Plant response rating, Blackgrass [2, 17] | Plant response rating, Johnsongrass [3, 17] | Plant response rating, Johnsongrass [3, 18] | Plant response rating, Goosegrass [4, 13] | Plant response rating, Goosegrass [4, 14] | Plant response rating, Goosegrass [4, 18] | Plant response rating, Crabgrass, Large [7, 11] | Plant response rating, Crabgrass, Large [7, 12] | Plant response rating, Crabgrass, Large [7, 13] | Plant response rating, Crabgrass, Large [7, 14] | Plant response rating, Crabgrass, Large [7, 17] | Plant response rating, Crabgrass, Large [7, 18] | Plant response rating, Oat, Wild (wild oat (Avena fatua); [13]) | Plant response rating, Oat, Wild (wild oat (Avena fatua); [14])
0: Plant response rating, Johnsongrass [3, 11] | Plant response rating, Nutsedge, Yellow [5, 11] | Plant response rating, Nutsedge, Yellow [5, 12] | Plant response rating, Nutsedge, Yellow [5, 13] | Plant response rating, Nutsedge, Yellow [5, 14] | Plant response rating, Nutsedge, Yellow [5, 15] | Plant response rating, Nutsedge, Yellow [5, 16] | Plant response rating, Nutsedge, Yellow [5, 17] | Plant response rating, Nutsedge, Yellow [5, 18] | Plant response rating, Ragweed [8, 12] | Plant response rating, Ragweed [8, 13] | Plant response rating, Ragweed [8, 15] | Plant response rating, Ragweed [8, 17] | Plant response rating, Ragweed [8, 18] | Plant response rating, Kochia (kochia (Kochia scoparia); [11]) | Plant response rating, Kochia (kochia (Kochia scoparia); [12]) | Plant response rating, Kochia (kochia (Kochia scoparia); [15]) | Plant response rating, Velvetleaf [9, 11] | Plant response rating, Velvetleaf [9, 12] | Plant response rating, Velvetleaf [9, 13] | Plant response rating, Velvetleaf [9, 14] | Plant response rating, Velvetleaf [9, 15] | Plant response rating, Velvetleaf [9, 16] | Plant response rating, Velvetleaf [9, 17] | Plant response rating, Cocklebur [10, 11] | Plant response rating, Cocklebur [10, 12] | Plant response rating, Cocklebur [10, 13] | Plant response rating, Cocklebur [10, 14] | Plant response rating, Cocklebur [10, 15] | Plant response rating, Cocklebur [10, 16] | Plant response rating, Cocklebur [10, 18]
60: Plant response rating, Kochia (kochia (Kochia scoparia); [13]) | Plant response rating, Oat, Wild (wild oat (Avena fatua); [15])
50: Plant response rating, Cupgrass, Woolly [1, 15] | Plant response rating, Cupgrass, Woolly [1, 16] | Plant response rating, Ragweed [8, 14]
98: Plant response rating, Corn (corn (Zea mays); [18])
95: Plant response rating, Corn (corn (Zea mays); [15]) | Plant response rating, Corn (corn (Zea mays); [16]) | Plant response rating, Corn (corn (Zea mays); [17]) | Plant response rating, Johnsongrass [3, 16] | Plant response rating, Goosegrass [4, 11] | Plant response rating, Goosegrass [4, 12] | Plant response rating, Oat, Wild (wild oat (Avena fatua); [12]) | Plant response rating, Oat, Wild (wild oat (Avena fatua); [18])
85: Plant response rating, Goosegrass [4, 16] | Plant response rating, Goosegrass [4, 17] | Plant response rating, Galium ([6]; 62 g ai/ha) | Plant response rating, Galium ([6]; 125 g ai/ha) | Plant response rating, Galium ([6]; 250 g ai/ha)

COCc1cc(-c2ccc(Br)cc2)nn1-c1c(O)cnn(C)c1=O [Compound 68]
85: Plant response rating, Blackgrass [2, 22] | Plant response rating, Crabgrass, Large [7, 22]
30: Plant response rating, Corn (corn (Zea mays); [21]) | Plant response rating, Cupgrass, Woolly [1, 21] | Plant response rating, Johnsongrass [3, 22]
50: Plant response rating, Blackgrass [2, 21]
0: Corn plant response rating (corn (Zea mays); [19]) | Plant response rating, Corn (corn (Zea mays); [20]) | Cupgrass, Woolly plant response rating [1, 19] | Plant response rating, Cupgrass, Woolly [1, 20] | Blackgrass plant response rating ([2]; 8 g ai/ha, postemergence) | Plant response rating, Blackgrass [2, 20] | Johnsongrass plant response rating ([3]; 8 g ai/ha) | Johnsongrass plant response rating ([3]; 16 g ai/ha) | Plant response rating, Johnsongrass [3, 21] | Goosegrass plant response rating ([4]; 8 g ai/ha) | Goosegrass plant response rating ([4]; 16 g ai/ha) | Plant response rating, Goosegrass [4, 21] | Nutsedge, Yellow plant response rating ([5]; 8 g ai/ha) | Nutsedge, Yellow plant response rating ([5]; 16 g ai/ha) | Plant response rating, Nutsedge, Yellow [5, 21] | Plant response rating, Nutsedge, Yellow [5, 22] | Ragweed plant response rating ([8]; 8 g ai/ha) | Ragweed plant response rating ([8]; 16 g ai/ha) | Plant response rating, Ragweed [8, 21] | Plant response rating, Ragweed [8, 22] | Kochia plant response rating (kochia (Kochia scoparia); 8 g ai/ha) | Kochia plant response rating (kochia (Kochia scoparia); 16 g ai/ha) | Plant response rating, Kochia (kochia (Kochia scoparia); [21]) | Plant response rating, Kochia (kochia (Kochia scoparia); [22]) | Velvetleaf plant response rating ([9]; 8 g ai/ha) | Velvetleaf plant response rating ([9]; 16 g ai/ha) | Plant response rating, Velvetleaf [9, 21] | Plant response rating, Velvetleaf [9, 22] | Oat, Wild plant response rating (wild oat (Avena fatua); 8 g ai/ha) | Oat, Wild plant response rating (wild oat (Avena fatua); 16 g ai/ha) | Cocklebur plant response rating [10, 19] | Plant response rating, Cocklebur [10, 20] | Plant response rating, Cocklebur [10, 21] | Plant response rating, Cocklebur [10, 22]
80: Plant response rating, Crabgrass, Large [7, 21]
40: Plant response rating, Oat, Wild (wild oat (Avena fatua); [22])
60: Plant response rating, Cupgrass, Woolly [1, 22] | Plant response rating, Crabgrass, Large [7, 20]
5: Plant response rating, Goosegrass [4, 22] | Plant response rating, Oat, Wild (wild oat (Avena fatua); [21])
95: Plant response rating, Corn (corn (Zea mays); [22])
20: Crabgrass, Large plant response rating [7, 19]
